Test results from ChEMBL document CHEMBL4043214, “Design, synthesis, and SAR study of 3-(benzo[d][1,3]dioxol-5-yl)-N-benzylpropanamide as novel potent synergists against fluconazole-resistant Candida albicans” (2017).

How the values were obtained:
Type in all cases: functional
Candida albicans [1] = experiment: Potentiation of fluconazole-induced anti-fungal activity against fluconazole-resistant Candida albicans isolate 103 assessed as fluconazole MIC80 at 8 ug/ml by checkerboard microdilution assay
Candida albicans [2] = experiment: Potentiation of fluconazole-induced anti-fungal activity against fluconazole-resistant Candida albicans isolate 100 assessed as fluconazole MIC80 at 4 ug/ml by checkerboard microdilution assay
Candida albicans [3] = experiment: Potentiation of fluconazole-induced anti-fungal activity against fluconazole-resistant Candida albicans isolate 103 by two-fold dilution method
Candida albicans [4] = experiment: Anti-fungal activity against fluconazole-resistant Candida albicans isolate 100 by microbroth dilution method
Candida albicans [5] = experiment: Potentiation of fluconazole-induced anti-fungal activity against fluconazole-resistant Candida albicans isolate 100 at 2 ug/ml by checkerboard microdilution assay
Candida albicans [6] = experiment: Potentiation of fluconazole-induced anti-fungal activity against fluconazole-resistant Candida albicans isolate 100 at 4 ug/ml by checkerboard microdilution assay
Candida albicans [7] = experiment: Anti-fungal activity against fluconazole-resistant Candida albicans isolate 103 by microbroth dilution method
Candida albicans [8] = experiment: Potentiation of fluconazole-induced anti-fungal activity against fluconazole-resistant Candida albicans isolate 100 at 1 ug/ml by checkerboard microdilution assay
Candida albicans [9] = experiment: Potentiation of fluconazole-induced anti-fungal activity against fluconazole-resistant Candida albicans isolate 100 assessed as fluconazole MIC80 at 2 ug/ml by checkerboard microdilution assay
Candida albicans [10] = experiment: Potentiation of fluconazole-induced anti-fungal activity against fluconazole-resistant Candida albicans isolate 100 at 8 ug/ml by checkerboard microdilution assay
Candida albicans [11] = experiment: Potentiation of fluconazole-induced anti-fungal activity against fluconazole-resistant Candida albicans isolate 103 at 4 ug/ml by checkerboard microdilution assay
Candida albicans [12] = experiment: Potentiation of fluconazole-induced anti-fungal activity against fluconazole-resistant Candida albicans isolate 100 assessed as fluconazole MIC80 at 1 ug/ml by checkerboard microdilution assay
Candida albicans [13] = experiment: Potentiation of fluconazole-induced anti-fungal activity against fluconazole-resistant Candida albicans isolate 103 assessed as fluconazole MIC80 at 2 ug/ml by checkerboard microdilution assay
Candida albicans [14] = experiment: Potentiation of fluconazole-induced anti-fungal activity against fluconazole-resistant Candida albicans isolate 103 assessed as fluconazole MIC80 at 4 ug/ml by checkerboard microdilution assay
Candida albicans [15] = experiment: Potentiation of fluconazole-induced anti-fungal activity against fluconazole-resistant Candida albicans isolate 100 assessed as fluconazole MIC80 at 8 ug/ml by checkerboard microdilution assay
Candida albicans [16] = experiment: Potentiation of fluconazole-induced anti-fungal activity against fluconazole-resistant Candida albicans isolate 103 at 1 ug/ml by checkerboard microdilution assay
Candida albicans [17] = experiment: Potentiation of fluconazole-induced anti-fungal activity against fluconazole-resistant Candida albicans isolate 103 assessed as fluconazole MIC80 at 1 ug/ml by checkerboard microdilution assay
Candida albicans [18] = experiment: Potentiation of fluconazole-induced anti-fungal activity against fluconazole-resistant Candida albicans isolate 103 at 8 ug/ml by checkerboard microdilution assay
Candida albicans [19] = experiment: Potentiation of fluconazole-induced anti-fungal activity against fluconazole-resistant Candida albicans isolate 100 by two-fold dilution method
Candida albicans [20] = experiment: Potentiation of fluconazole-induced anti-fungal activity against fluconazole-resistant Candida albicans isolate 103 at 2 ug/ml by checkerboard microdilution assay
Candida albicans [21] = experiment: Synergistic anti-fungal activity against fluconazole-resistant Candida albicans isolate 103 in presence of fluconazole by two-fold dilution method
Candida albicans [22] = experiment: Synergistic anti-fungal activity against fluconazole-resistant Candida albicans isolate 100 in presence of fluconazole by two-fold dilution method

COc1ccc2cc3[n+](cc2c1OC)CCc1cc2c(cc1-3)OCO2 [BERBERINE]
MIC80 (Candida albicans [1]): 1 µg/mL
MIC80 (Candida albicans [2]): 1 µg/mL
fractional inhibitory concentration index (FICI) (Candida albicans [3]): 0.093
MIC80 (Candida albicans [4]): 32 µg/mL
fractional inhibitory concentration index (FICI) (Candida albicans [5]): 0.039
fractional inhibitory concentration index (FICI) (Candida albicans [6]): 0.063
MIC80 (Candida albicans [7]): 32 µg/mL
fractional inhibitory concentration index (FICI) (Candida albicans [8]): 0.07
MIC80 (Candida albicans [9]): 1 µg/mL
fractional inhibitory concentration index (FICI) (Candida albicans [10]): 0.093
fractional inhibitory concentration index (FICI) (Candida albicans [11]): 0.063
MIC80 (Candida albicans [12]): 2 µg/mL
MIC80 (Candida albicans [13]): 1 µg/mL
MIC80 (Candida albicans [14]): 1 µg/mL
MIC80 (Candida albicans [15]): 1 µg/mL
fractional inhibitory concentration index (FICI) (Candida albicans [16]): 0.07
MIC80 (Candida albicans [17]): 2 µg/mL
fractional inhibitory concentration index (FICI) (Candida albicans [18]): 0.093
fractional inhibitory concentration index (FICI) (Candida albicans [19]): 0.093
fractional inhibitory concentration index (FICI) (Candida albicans [20]): 0.039
MIC80 (Candida albicans [21]): 1 µg/mL
MIC80 (Candida albicans [22]): 1 µg/mL
